The subject of one series is Trypanosoma cruzi. Description: Antiparasitic activity against trypomastigotes of Trypanosoma cruzi Tulahuen C2C4 expressing LacZ gene infected in rat L6 cells after 96 hrs. In kind it is functional, organism-based. Conditions: Tulahuen C2C4, L6, 96 h.
The test system of series [1] is Trypanosoma brucei rhodesiense. In words: Antiparasitic activity against bloodstream form of Trypanosoma brucei rhodesiense STIB 900 […] after 72 hrs by Alamar blue assay. Format: functional, organism-based. Particulars: STIB 900, 72 h.
A further series deals with Leishmania donovani. Description: Antiparasitic activity against amastigotes of Leishmania donovani MHOM/ET/67/L82 […] after 72 hrs by Alamar blue assay. Conditions: MHOM/ET/67/L82, 72 h. Format: functional, organism-based. (Resazurin is reduced to fluorescent resorufin, in cell work by metabolically active cells.)
Another series has as its system Plasmodium falciparum. Description: Antiparasitic activity against Plasmodium falciparum K1 […] assessed as inhibition of parasite growth preincubated for 48 hrs before [3H]hypoxanthine addition measured after 24 hrs by [3H]hypoxanthine incorporation assay. Format: functional, organism-based.
In the next series the test system is L6. In words: Cytotoxicity against rat L6 cells after 72 hrs by Alamar blue assay. Particulars: L6, 72 h. Format: cell-based.
Series [2] is described as follows: Selectivity index, ratio of IC50 for rat L6 cells to IC50 for bloodstream form of Trypanosoma brucei rhodesiense STIB 900. In kind it is toxicity, cell-based. Conditions: read-out: Ratio IC50.
Series [3] is described as follows: Selectivity index, ratio of IC50 for rat L6 cells to IC50 for Leishmania donovani MHOM/ET/67/L82 amastigotes. Particulars: read-out: Ratio IC50. Format: toxicity, cell-based.
A short description of series [4]: Selectivity index, ratio of IC50 for rat L6 cells to IC50 for Plasmodium falciparum K1. Particulars: read-out: Ratio IC50. In kind it is toxicity, cell-based.
Series [5] can be described thus: Selectivity index, ratio of IC50 for rat L6 cells to IC50 for Trypanosoma cruzi Tulahuen C2C4 trypomastigotes. In kind it is toxicity, cell-based. Conditions: read-out: Ratio IC50.

By IC50 is commonly meant the concentration needed to halve the response being measured. With `CC(=O)OC[C@H]1O[C@@H](N2C(=O)/C(=C3/C(=O)Nc4ccccc43)c3ccccc32)[C@H](OC(C)=O)[C@@H](OC(C)=O)[C@@H]1OC(C)=O`, the IC50 was 11.2 µM in the series with Trypanosoma cruzi; 1.24 µM in series [1]; 1.93 µM in the series with Leishmania donovani; > 8 µM with Plasmodium falciparum; 4.53 µM in the series with L6.

As for `CCCC(=O)c1ccc2c(c1)/C(=C1\C(=O)N([C@@H]3O[C@H](COC(C)=O)[C@@H](OC(C)=O)[C@H](OC(C)=O)[C@H]3OC(C)=O)c3ccc(Br)cc31)C(=O)N2`, the IC50 with Trypanosoma cruzi was > 120 µM; in series [1], 0.51 µM; in the series with Leishmania donovani, 3.6 µM; in the series with Plasmodium falciparum, 2.48 µM; in the series with L6, 99 µM. Moreover, the selectivity ratio came out at 194 in [2], 27.5 in series [3] and 39.9 in series [4].

As for `CC(=O)OC[C@H]1O[C@@H](N2C(=O)/C(=C3/C(=O)Nc4ncccc43)c3cc(Br)ccc32)[C@H](OC(C)=O)[C@@H](OC(C)=O)[C@@H]1OC(C)=O`, the 50% inhibitory concentration (IC50) in the series with Trypanosoma cruzi is 19.3 µM; in series [1] it was 0.88 µM; in the series on Leishmania donovani it was 0.84 µM; in the series with Plasmodium falciparum, > 7 µM; in the series with L6, 10 µM.

`CC(=O)OC[C@H]1O[C@@H](N2C(=O)/C(=C3/C(=O)Nc4ccc(OC(F)(F)F)cc43)c3ccccc32)[C@H](OC(C)=O)[C@@H](OC(C)=O)[C@@H]1OC(C)=O`: the half-inhibitory concentration (IC50) with Trypanosoma cruzi was > 130 µM; in series [1] it was 0.6 µM; in the series with Leishmania donovani it was 11.1 µM; in the series on Plasmodium falciparum, > 7 µM; in the series with L6, 124 µM. Besides, the selectivity ratio in [2] was determined as 206.

As for `O=C(Cn1ccnc1[N+](=O)[O-])NCc1ccccc1` [BENZNIDAZOLE], in the series with Trypanosoma cruzi, 2.55 µM corresponded to half-maximal inhibition (IC50). Besides, the selectivity ratio in series [5] is > 135.

Regarding `CCN(CC)CCCC(C)Nc1ccnc2cc(Cl)ccc12` (stereo unspecified) [CHLOROQUINE], the selectivity ratio in series [4] came out at 327.

For the molecule `Nc1nc(N)nc(Nc2ccc([As]3SCC(CO)S3)cc2)n1` (stereo unspecified) [MELARSOPROL], in [1], the 50% inhibitory concentration (IC50) is 0.013 µM. In [2], the selectivity ratio worked out at 193.

In turn, `CCCCCCCCCCCCCCCCOP(=O)([O-])OCC[N+](C)(C)C` [MILTEFOSINE] registered an IC50 in the series with Leishmania donovani of 0.37 µM. Further, the selectivity ratio in series [3] was found to be 265.

The values are drawn from ChEMBL document CHEMBL1909597, “Biological evaluation of glycosyl-isoindigo derivatives against the pathogenic agents of tropical diseases (malaria, Chagas disease, leishmaniasis and human African trypanosomiasis)” (Bioorg Med Chem Lett, 2011).
